From US4916065A (priority 1988, dated 1990)
Converted amounts (≈) assume the structure as drawn.

How the values were obtained:
[1] = test system: Peptostreptococcus anaerobius A21905; assay: Antibacterial MIC, serial agar dilution; format: cell-based; settings: anaerobic, GAM agar, read-out: MIC
[2] = test system: Clostridium perfringens A9635; assay: microbe, parasite or virus in culture; format: cell-based
[3] = test system: Propionibacterium acnes A21933; assay: Antibacterial MIC, serial agar dilution; format: cell-based; settings: Cutibacterium acnes, anaerobic, GAM agar
[4] = test system: Bacteroides fragilis A22693; assay: Antibacterial MIC, serial agar dilution; format: cell-based; settings: anaerobic, GAM agar
[5] = test system: Clostridium difficile A21675; assay: Antibacterial MIC, serial agar dilution; format: cell-based; settings: Clostridioides difficile, anaerobic, GAM agar, clindamycin-resistant
[6] = test system: Bacteroides fragilis A22534; assay: Antibacterial MIC, serial agar dilution; format: cell-based; settings: anaerobic, GAM agar, ampicillin-resistant, read-out: MIC
Escherichia coli A20665 = assay: Antibacterial MIC, serial agar dilution; format: cell-based; settings: aerobic, nutrient agar, kanamycin-resistant
[7] = test system: Staphylococcus aureus A20234; assay: Antibacterial MIC, serial agar dilution; format: cell-based; settings: aerobic, nutrient agar, kanamycin-resistant
[8] = test system: Klebsiella pneumoniae D11; assay: Antibacterial MIC, serial agar dilution; format: cell-based; settings: aerobic, nutrient agar
[9] = test system: Pseudomonas aeruginosa A9930; assay: Antibacterial MIC, serial agar dilution; format: cell-based; settings: aerobic, nutrient agar
[10] = test system: Bacillus subtilis PCI-219; assay: Antibacterial MIC, serial agar dilution; format: cell-based; settings: PCI219, aerobic, nutrient agar
Micrococcus luteus 1001 = assay: Antibacterial MIC, serial agar dilution; format: cell-based; settings: aerobic, nutrient agar
[11] = test system: Staphylococcus epidermidis D153; assay: Antibacterial MIC, serial agar dilution; format: cell-based; settings: aerobic, nutrient agar
[12] = test system: Staphylococcus aureus 209P; assay: Antibacterial MIC, serial agar dilution; format: cell-based; settings: aerobic, nutrient agar
[13] = test system: Staphylococcus epidermidis A22152; assay: Antibacterial MIC, serial agar dilution; format: cell-based; settings: aerobic, nutrient agar, kanamycin-resistant
[14] = test system: Escherichia coli A20341-1; assay: Antibacterial MIC, serial agar dilution; format: cell-based; settings: A203411, aerobic, nutrient agar, ampicillin-resistant
[15] = test system: Staphylococcus aureus Smith; assay: Antibacterial MIC, serial agar dilution; format: cell-based; settings: aerobic, nutrient agar
Escherichia coli A9624 = assay: Antibacterial MIC, serial agar dilution; format: cell-based; settings: aerobic, nutrient agar, kanamycin-resistant
[16] = test system: Enterococcus faecalis A9612; assay: Antibacterial MIC, serial agar dilution; format: cell-based; settings: aerobic, nutrient agar
[17] = test system: Staphylococcus aureus A15097; assay: Antibacterial MIC, serial agar dilution; format: cell-based; settings: aerobic, nutrient agar, methicillin-resistant
[18] = test system: Enterobacter cloacae A9659; assay: Antibacterial MIC, serial agar dilution; format: cell-based; settings: aerobic, nutrient agar
[19] = test system: Morganella morganii A9553; assay: Antibacterial MIC, serial agar dilution; format: cell-based; settings: aerobic, nutrient agar
Proteus vulgaris A9436 = assay: Antibacterial MIC, serial agar dilution; format: cell-based; settings: aerobic, nutrient agar
[20] = test system: Klebsiella pneumoniae A20680; assay: Antibacterial MIC, serial agar dilution; format: cell-based; settings: aerobic, nutrient agar, kanamycin-resistant
[21] = test system: Serratia marcescens A20222; assay: Antibacterial MIC, serial agar dilution; format: cell-based; settings: aerobic, nutrient agar
Escherichia coli Juhl = assay: Antibacterial MIC, serial agar dilution; format: cell-based; settings: aerobic, nutrient agar
[22] = test system: Staphylococcus aureus BX1633; assay: Antibacterial MIC, serial agar dilution; format: cell-based; settings: aerobic, nutrient agar, ampicillin-resistant
Proteus mirabilis A9554 = assay: Antibacterial MIC, serial agar dilution; format: cell-based; settings: aerobic, nutrient agar
Escherichia coli NIHJ = assay: Antibacterial MIC, serial agar dilution; format: cell-based; settings: aerobic, nutrient agar
B16-F10 = assay: In vitro cytotoxicity; format: cell-based, murine; settings: Mus musculus, 72 hours, neutral red, 540 nm
[23] = test system: RNA synthesis in L1210 cells; assay: Inhibition of macromolecule synthesis in L1210 leukemia; format: cell-based; settings: Mus musculus; 14C-uridine, L1210, 15 min + 60 min, 37° C.
[24] = test system: Protein synthesis in L1210 cells; assay: as above; format: cell-based; settings: Mus musculus; 3H-leucine, L1210, 15 min + 60 min, 37° C.
Moser = assay: In vitro cytotoxicity; format: cell-based; settings: Homo sapiens; 72 hours, neutral red, 540 nm
[25] = test system: DNA synthesis in L1210 cells; assay: Inhibition of macromolecule synthesis in L1210 leukemia; format: cell-based; settings: Mus musculus; 3H-thymidine, L1210, 15 min + 60 min, 37° C.
HCT-116 = assay: In vitro cytotoxicity; format: cell-based; settings: Homo sapiens, 72 hours, neutral red, 540 nm

CCC[C@@H]1C[C@@H](C(=O)N[C@@H]([C@H]2O[C@H](SC)[C@H](O)[C@@H](O)[C@H]2O)[C@H](C)Cl)N(C)C1 [Clindamycin, reference compound]
MIC [1]: 0.4 mg/L (≈ 0.941 µM)
MIC [2]: 0.025 mg/L (≈ 0.0588 µM)
MIC [3]: 0.4 mg/L (≈ 0.941 µM)
MIC [4]: 0.05 mg/L (≈ 0.118 µM)
MIC [5]: > 100 mg/L
MIC [6]: 0.8 mg/L (≈ 1.88 µM)

NC[C@H]1O[C@H](O[C@H]2[C@H](O)[C@@H](O[C@H]3O[C@H](CO)[C@@H](O)[C@H](N)[C@H]3O)[C@H](N)C[C@@H]2N)[C@H](O)[C@@H](O)[C@@H]1O [Kanamycin A, reference compound]
MIC (Escherichia coli A20665): > 100 mg/L
MIC [7]: 100 mg/L (≈ 206 µM)
MIC [8]: 0.4 mg/L (≈ 0.826 µM)
MIC [9]: 25 mg/L (≈ 51.6 µM)
MIC [10]: 0.2 mg/L (≈ 0.413 µM)
MIC (Micrococcus luteus 1001): 3.1 mg/L (≈ 6.4 µM)
MIC [11]: 0.4 mg/L (≈ 0.826 µM)
MIC [12]: 0.2 mg/L (≈ 0.413 µM)
MIC [13]: 12.5 mg/L (≈ 25.8 µM)
MIC [14]: 6.3 mg/L (≈ 13 µM)
MIC [15]: 0.8 mg/L (≈ 1.65 µM)
MIC (Escherichia coli A9624): > 100 mg/L
MIC [16]: 25 mg/L (≈ 51.6 µM)
MIC [17]: 0.8 mg/L (≈ 1.65 µM)
MIC [18]: 3.1 mg/L (≈ 6.4 µM)
MIC [19]: 3.1 mg/L (≈ 6.4 µM)
MIC (Proteus vulgaris A9436): 0.4 mg/L (≈ 0.826 µM)
MIC [20]: > 100 mg/L
MIC [21]: 6.3 mg/L (≈ 13 µM)
MIC (Escherichia coli Juhl): 6.3 mg/L (≈ 13 µM)
MIC [22]: 0.8 mg/L (≈ 1.65 µM)
MIC (Proteus mirabilis A9554): 3.1 mg/L (≈ 6.4 µM)
MIC (Escherichia coli NIHJ): 1.6 mg/L (≈ 3.3 µM)

CO[C@@]12[C@H](COC(N)=O)C3=C(C(=O)C(C)=C(N)C3=O)N1C[C@@H]1N[C@@H]12 [Mitomycin C, reference compound]
IC50 (B16-F10): 0.5 mg/L (≈ 1.5 µM)
IC50 [23]: > 100 mg/L
IC50 [24]: > 100 mg/L
IC50 (Moser): 1.2 mg/L (≈ 3.59 µM)
IC50 [25]: 1.7 mg/L
IC50 (HCT-116): 0.8 mg/L (≈ 2.39 µM)
